Laboratory results: PMC11763059, “GENI as an AMPK Activator Binds α and γ Subunits and Improves the Memory Dysfunction of Alzheimer’s Disease Mouse Models via Autophagy and Neuroprotection” (Antioxidants, 2025)

Key:
PC12 cells [1] = assay: Neuroprotection assay (MTT) on H2O2-damaged PC12 cells; format: cell-based; conditions: GENI 1, 3, or 10 μM 24 h, then 0.8 mM H2O2 1 h
Description: We seeded 5 × 10^4 PC12 cells in each well of a 24-well plate and incubated the cells for 24 h at 37 °C in 5% CO2. The medium was changed to 1 mL of serum-free Dulbecco’s modified Eagle’s medium (DMEM; Thermo Scientific, Shanghai, China) containing the different test samples. To determine the optimal concentration of hydrogen peroxide (H2O2), we treated cells with 0.5% dimethyl sulfoxide (DMSO) for 24 h and then incubated the cells with different concentrations of H2O2 for 1 h. In this work, 0.8 mM H2O2 was selected as the best dose for the following experiment. To study the neuroprotective effects of GENI, we treated PC12 cells with resveratrol (RES 10 μM) or GENI (1, 3, or 10 μM) for 24 h and 0.8 mM H2O2 for 1 h. The medium was changed to 500 μL of serum-free DMEM containing 200 μg/mL 3-(4,5-dimethyltaizol-2-yl)-2,5-diphenyltetrazolium bromide (MTT) and incubated for an additional 2 h. The medium was completely removed, and 200 μL of DMSO was added to each well to dissolve the formed formazan crystals. The resulting formazan was detected at 570 nm using a microplate reader (Bio-Tec Instruments Inc., Winooski, VT, USA).

AMPK [2] = assay: Cellular thermal shift assay (CETSA) in PC12 cells, AMPK; format: binding; conditions: 10 μM GENI 2 h, 60 °C to 80 °C
Description: (§1) In a 60 mm dish containing 5 mL of DMEM, 2 × 10^6 cells were added and incubated for 24 h. In each plate, 10 μM GENI was added and incubated for 2 h. Cells were harvested and heated at a temperature ranging from 60 °C to 80 °C for PC12 cell samples. We obtained a certain amount of cerebral cortex and hippocampus samples, which were added with PBS and ground. After centrifugation, the supernatant was used as a sample, and we measured the protein concentration with a BCA kit (CoWin Biotech Co., Ltd., Taizhou, Jiangsu, China). The protein of the cerebral cortex or hippocampus was incubated with 10 μM GENI at 37 °C for 2 h and heated from 65 °C to 100 °C for the cerebral cortex sample but 43 °C to 67 °C and 65 °C to 100 °C for the hippocampus sample. Equal volumes of supernatant heated at each temperature point for the control and treatment groups were used for Western blot analysis with the antibody for specific proteins.

PC12 cells [3] = assay: Total SOD enzymatic activity assay in PC12 cells; format: cell-based; conditions: compared with the H2O2-treated group
Description: To determine ROS levels in PC12 cells, we seeded 5 × 10^4 PC12 cells in each well of a 24-well plate. Cells were treated with RES (10 μM) or GENI (1, 3, and 10 μM) for 24 h, followed by 0.8 mM H2O2 for 1 h. DCFH-DA (2,7-dichlorodihydrofluorescein diacetate, final concentration, 10 μM) was then added to each well and incubated for 30 min. Cells were washed with PBS to remove extracellular DCFH-DA, and intercellular ROS was detected by using a SpectraMax M3 multimode microplate reader (Molecular Devices Corporation, San Jose, CA, USA) at an excitation wavelength of 488 nm and an emission wavelength of 525 nm. Meanwhile, DCF in PC12 cells was observed using a fluorescence microscope (HCS, Thermo Fisher, Science, Waltham, MA, USA). To detect malondialdehyde (MDA) content and total SOD enzymatic activities in PC12 cells, we seeded 2 × 10^6 PC12 cells in 60 mm dishes containing 5 mL of DMEM and cultured the cells for 24 h. PC12 cells were treated with RES (10 μM) or GENI (3 or 10 μM) for 24 h and then treated with 0.8 mM H2O2 for 1 h to determine the MDA content and total superoxide dismutase (SOD) activities. Cells were lysed and centrifuged. […] MDA quantification and total SOD activities were determined using MDA and SOD enzyme activity assay kits (Nanjing Jiancheng Bioengineering Institute, Nanjing, China) following the manufacturer’s instructions.

[4] = molecular target: T1, AMPK-s6 (γ subunit- K309A) (Rattus norvegicus, UniProt P54645+P80385, K309A); assay: SPR analysis, AMPK mutant s6; format: binding
T1 construct: His (N); made in house
Description: Mammalian AMPK subunits (His-α1, β1, and γ1) were cloned into a pET-3d vector, and protein expression and purification were similar to the literature.
SPR analysis was performed with a Biacore T200 instrument (GE Healthcare). Firstly, the purred His-tagged AMPK containing α1β1γ1 protein was captured onto an activated carboxymethylated 5 (CM5) chip using amine coupling to levels ranging from 4000 RU to 6000 RU. Secondly, GENI was dissolved in PBS-P buffer solution (0.05% (v/v) Tween 20 and PBS), and the concentration of GENI was 64 μM. Thirdly, the solution of GENI was diluted to 32 μM, 16 μM, 8 μM, 4 μM, 2 μM, 1 μM and 0.5 μM with PBS-P buffer solution. The sample was filtered by pumping through a […] membrane. A gradient concentration of GENI was injected at a flow rate of 30 μL/min in a running buffer (0.05% (v/v) Tween 20 and PBS). The data were analyzed with Biacore evaluation software (T200 version 2.0) and fitted to the 1:1 Langmuir binding model, and the kinetic parameters were derived.
The non-covalent interaction between drugs and proteins is an important way to exert drug efficacy, and its mode of action and binding affinity usually determine the utilization and biological activity of drugs. AMPK is a heterotrimer complex consisting of an α subunit containing the kinase domain and two regulatory subunits (β- and γ-). Different action sites have varied or even opposite pharmacological effects. The molecular mechanism of interaction between the protein and molecule should be investigated thoroughly. After co-incubation of GENI and AMPK, LC-MS/MS measurements were performed to predict the binding sites. As shown in Extended Data Figure S2, ASP148, ASP157 and ASP166 of the AMPK α subunits and LYS148, ASP156, LYS309, and ASP316 of the AMPK γ subunit were possible to the binding sites of GENI. […] Thus, all of these seven sites affected the binding of GENI and AMPK to varying degrees, and they were located in the C lobe kinase domain of the AMPK α subunit, and the CBS2 and CBS4 domain of the AMPK γ subunit, respectively.

AMPK [5] = assay: CETSA with cerebral cortex and hippocampus protein of mice; format: binding; conditions: cerebral cortex and hippocampus of mice brains
Description: as §1

T1 sequence (P54645 13-559 limits assumed): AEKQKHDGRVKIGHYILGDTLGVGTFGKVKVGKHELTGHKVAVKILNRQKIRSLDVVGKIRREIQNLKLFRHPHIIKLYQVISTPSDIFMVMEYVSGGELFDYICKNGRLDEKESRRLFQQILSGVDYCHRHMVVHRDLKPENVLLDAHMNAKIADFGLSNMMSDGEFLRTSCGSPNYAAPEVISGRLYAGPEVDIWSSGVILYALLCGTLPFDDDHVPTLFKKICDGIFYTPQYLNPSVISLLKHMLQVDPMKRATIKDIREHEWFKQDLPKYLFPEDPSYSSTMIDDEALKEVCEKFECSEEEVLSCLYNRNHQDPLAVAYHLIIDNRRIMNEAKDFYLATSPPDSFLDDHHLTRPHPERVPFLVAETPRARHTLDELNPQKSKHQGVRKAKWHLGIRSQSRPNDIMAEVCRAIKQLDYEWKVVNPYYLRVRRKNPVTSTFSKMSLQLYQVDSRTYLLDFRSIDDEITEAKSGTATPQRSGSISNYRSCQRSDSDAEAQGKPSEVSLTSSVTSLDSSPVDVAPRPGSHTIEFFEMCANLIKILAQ
T1 sequence (P80386 whole entry partner): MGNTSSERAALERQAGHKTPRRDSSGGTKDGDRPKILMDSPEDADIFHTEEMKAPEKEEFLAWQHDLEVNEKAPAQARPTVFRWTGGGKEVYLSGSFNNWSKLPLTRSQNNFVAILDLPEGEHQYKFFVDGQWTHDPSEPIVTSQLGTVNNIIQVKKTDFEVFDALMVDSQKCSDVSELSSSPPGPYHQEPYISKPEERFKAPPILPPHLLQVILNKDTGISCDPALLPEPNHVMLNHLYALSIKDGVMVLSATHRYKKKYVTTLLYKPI
T1 sequence (P80385 whole entry K309A): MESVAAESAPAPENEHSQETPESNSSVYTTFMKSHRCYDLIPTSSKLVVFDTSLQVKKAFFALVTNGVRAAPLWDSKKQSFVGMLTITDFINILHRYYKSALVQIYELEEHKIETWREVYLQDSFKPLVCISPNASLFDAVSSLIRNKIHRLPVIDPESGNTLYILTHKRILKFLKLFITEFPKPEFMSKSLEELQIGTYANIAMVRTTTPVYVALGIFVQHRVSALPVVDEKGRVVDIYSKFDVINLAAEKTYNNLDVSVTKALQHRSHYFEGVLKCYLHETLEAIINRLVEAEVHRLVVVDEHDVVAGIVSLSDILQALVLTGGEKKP

CC(C)CCOC(=O)C1=CO[C@@H](O[C@@H]2O[C@H](CO)[C@@H](O)[C@H](O)[C@H]2O)C2C(CO)=CCC12 (stereo partly shown) [GENI, Geniposidic 4-isoamyl ester]
survival rate of PC12 cells induced by H2O2 (PC12 cells [1]): significantly improve | thermal stability of AMPK (CETSA) (AMPK [2]): sensibly increase the thermal stability | total SOD activity (PC12 cells [3]): increased | Kd ([4]; SPR): 6.21 µM | kon ([4]; SPR, association rate, read-out: Ka): 806 M⁻¹ s⁻¹ | response (RU) in SPR ([4]; point mutation of K309, versus wild-type): significantly reduced | stability of AMPK proteins (CETSA) (AMPK [5]): enhanced the stability
